Source: the NIST ThermoML archive (doi:10.1016/j.fluid.2018.08.001)
Numbers after ± are expanded uncertainties.

Conditions: 303.15 K, 101.33 kPa, Liquid; for viscosity: Capillary tube (Ostwald / Ubbelohde) method; for speed of sound: Linear variable-path acoustic interferometer; for mass density: Pycnometric method

viscosity [mPa·s] | speed of sound [m/s] | mass density [kg/m3] | SMILES
1.08 ± 0.04 | 1321 ± 1.9 | 1022.4 ± 1.1 | C1COCCO1 [1,4-dioxane]
0.36 ± 0.04 | 1051.2 ± 1.9 | 652.9 ± 1 | CCCCCC [hexane]
0.46 ± 0.04 | 1252.2 ± 1.9 | 876.5 ± 1.1 | C1CCOC1 [tetrahydrofuran]
1.43 ± 0.04 | 1538.2 ± 2.1 | 975.6 ± 1.1 | NCc1ccccc1 [benzylamine]
